Experimental data published in PubChem BioAssay AID342 (DTP/NCI, 2004).
Where “and” joins values, the source holds several entries; their conditions need not be identical. Identical values can stand only once.

System: Swiss mice, Sarcoma 180 sc, mean tumor weight T/C
Assay: NCI In Vivo Anticancer Drug Screen. Data for tumor model Sarcoma 180 (subcutaneous) in Swiss mice
Conditions: endpoint: mean tumor weight, higher = larger tumour
In short: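 Tumor-bearing mice, transplantable tumor; readout survival or tumor size; result = T/C, treated vs vehicle control.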

Structure (SMILES): NC(Cc1ccc(N(CCCl)CCCl)cc1)C(=O)O (stereo not drawn)
- T/C (dose: 0.45 mg/kg/injection, schedule: Q#A X014 (ip), vehicle: carboxymethylcellulose (CMC)): 68 % of control
- T/C (dose: 0.62 mg/kg/injection, schedule: Q#A X014 (ip), vehicle: carboxymethylcellulose (CMC)): 83 % of control
- T/C (dose: 0.81 mg/kg/injection, schedule: Q01DX007 (ip), vehicle: carboxymethylcellulose (CMC)): 81 % of control
- T/C (dose: 0.9 mg/kg/injection, schedule: Q#A X014 (ip), vehicle: carboxymethylcellulose (CMC)): 74 % of control
- T/C (dose: 1.0 mg/kg/injection, schedule: Q#A X014 (ip), vehicle: methylcellulose (MC)): 80 % of control
- T/C (dose: 1.08 mg/kg/injection, schedule: Q#A X014 (ip), vehicle: carboxymethylcellulose (CMC)): 76 % of control
- T/C (dose: 1.25 mg/kg/injection, schedule: Q#A X014 (ip), vehicle: carboxymethylcellulose (CMC)): 78 % of control
- T/C (dose: 1.62 mg/kg/injection, schedule: Q01DX007 (ip), vehicle: carboxymethylcellulose (CMC)): 78 % of control
- T/C (dose: 1.62 mg/kg/injection, schedule: Q#A X014 (ip), vehicle: carboxymethylcellulose (CMC)): 78 % of control
- T/C (dose: 1.8 mg/kg/injection, schedule: Q#A X014 (ip), vehicle: carboxymethylcellulose (CMC)): 60 % of control
- T/C (dose: 2.0 mg/kg/injection, schedule: Q#A X014 (ip), vehicle: methylcellulose (MC)): 59 % of control
- T/C (dose: 2.16 mg/kg/injection, schedule: Q#A X014 (ip), vehicle: carboxymethylcellulose (CMC)): 51 % of control
- T/C (dose: 2.5 mg/kg/injection, schedule: Q#A X014 (ip), vehicle: carboxymethylcellulose (CMC)): 47 % of control
- T/C (dose: 2.88 mg/kg/injection, schedule: Q01DX007 (ip), vehicle: carboxymethylcellulose (CMC)): 95 % of control
- T/C (dose: 3.25 mg/kg/injection, schedule: Q01DX007 (ip), vehicle: carboxymethylcellulose (CMC)): 32 % of control
- T/C (dose: 3.25 mg/kg/injection, schedule: Q#A X014 (ip), vehicle: carboxymethylcellulose (CMC)): 34 % of control
- T/C (dose: 3.6 mg/kg/injection, schedule: Q01DX007 (ip), vehicle: carboxymethylcellulose (CMC)): 62 % of control
- T/C (dose: 3.6 mg/kg/injection, schedule: Q#A X014 (ip), vehicle: carboxymethylcellulose (CMC)): 31 % of control
- T/C (dose: 4.0 mg/kg/injection, schedule: Q#A X014 (ip), vehicle: methylcellulose (MC)): 47 % of control
- T/C (dose: 4.8 mg/kg/injection, schedule: Q01DX007 (ip), vehicle: carboxymethylcellulose (CMC)): 42 % of control
- T/C (dose: 5.0 mg/kg/injection, schedule: Q#A X014 (ip), vehicle: carboxymethylcellulose (CMC)): 7 % of control
- T/C (dose: 7.2 mg/kg/injection, schedule: Q01DX007 (ip), vehicle: carboxymethylcellulose (CMC)): 20 % of control
- T/C (dose: 8.0 mg/kg/injection, schedule: Q#A X014 (ip), vehicle: methylcellulose (MC)): 14 % of control

Structure (SMILES): CC(=O)c1cccc(NC2C(N)C(NC(=O)N(C)C)(C(C)O)C(C)(O)C2(O)COC(=O)c2c(C)cccc2O)c1 (stereo not drawn)
- T/C (dose: 0.5 mg/kg/injection, schedule: Q01DX007 (ip), vehicle: other): 88 % of control
- T/C (dose: 1.0 mg/kg/injection, schedule: Q01DX007 (ip), vehicle: other): 81 % of control
- T/C (dose: 2.0 mg/kg/injection, schedule: Q01DX007 (ip), vehicle: other): 110 % of control
- T/C (dose: 2.0 mg/kg/injection, schedule: Q01DX007 (ip), vehicle: saline): 66 % of control

Structure (SMILES): Cc1n[nH]c(=O)[nH]c1=O
- T/C (dose: 500.0 mg/kg/injection, schedule: Q01DX007 (ip), vehicle: other): 95 % of control
- T/C (dose: 750.0 mg/kg/injection, schedule: Q01DX007 (ip), vehicle: other): 83 % of control

Structure (SMILES): CCC(=O)OCC1OC(n2cnc3c(=S)nc(N)[nH]c32)C(OC(=O)CC)C1OC(=O)CC (stereo not drawn)
- T/C (dose: 1.0 mg/kg/injection, schedule: Q01DX007 (ip), vehicle: carboxymethylcellulose (CMC)): 61 % of control
- T/C (dose: 2.0 mg/kg/injection, schedule: Q01DX007 (ip), vehicle: carboxymethylcellulose (CMC)): 65 % of control
- T/C (dose: 5.0 mg/kg/injection, schedule: Q01DX007 (ip), vehicle: carboxymethylcellulose (CMC)): 57 % of control and 58 % of control
- T/C (dose: 11.0 mg/kg/injection, schedule: Q01DX007 (ip), vehicle: carboxymethylcellulose (CMC)): 22 % of control
